Measurements: US20100310543A1, “METHOD OF PREVENTING AND TREATING ACUTE BRAIN PATHOLOGIES” (UNIVERSITY OF ZURICH, priority 2007, published 2010)
Where “and” joins values, the source holds several entries; their conditions need not be identical. Equal values may be shown once. Read-outs that look alike come from different tables or passages of the source.

Legend:
[1] = tested on: PP2A; conditions: literature ranges, cited from earlier work
[2] = tested on: hippocampal slices; conditions: 1 μM OA; cited from earlier work
[3] = tested on: acute hippocampal slices (area CA1); experiment: f-EPSP recovery after transient OGD in acute hippocampal slices; format: cell-based, mouse; conditions: for mean f-EPSP slope 80-90 min after the onset of OGD: 25 min OGD, % of pre-OGD baseline
Protocol: (§1) Adult mice were killed by cervical dislocation and the heads were immediately immersed in freshly prepared ice-cold artificial cerebrospinal fluid (aCSF: 119 mM NaCl, 11 mM D-glucose, 1.3 mM MgCl2.6H2O, 1.3 mM NaH2PO4, 2.5 mM KCl, 2.5 mM CaCl2, 26 mM NaHCO3, gassed with 95% O2/5% CO2 for a minimum of 20-min) for at least 3 min. Brains were quickly removed and hippocampi were extracted for electrophysiological recordings. Acute slices (400 μm thick) were prepared with a vibratome (Leica VT 1000S, Germany) in ice-cold oxygenated aCSF. Slices were transferred to an interface chamber at 34° C. for 40 to 50 min then kept at room temperature for at least 1-2 hours before recording. Recordings were performed in a submersion chamber (Slice Mini Chamber III/IV, Luigs & Neumann, Germany) continuously perfused with aCSF at approximately 1.1 ml/min. A monopolar electrode was placed in the stratum radiatum to activate Schaffer collaterals and test stimuli were applied at 0.033 Hz at an intensity set to evoke 1/3 of the maximum f-EPSP. Evoked f-EPSP were recorded in the stratum radiatum with a borosilicate micropipette filled with NaCl 3M or aCSF. The signal was amplified with an AXOPATCH 200B amplifier (Axon Instruments/Molecular Devices, Germany) and sampled using pCLAMP. Baseline responses were recorded for 10-min or until stable. For extracellular recordings in example 8, a monopolar electrode is placed in the Schaffer collateral fibers, and stimulation is applied at 0.033 Hz with stimulus intensity ranging from 20 to 80 μA, yielding evoked field EPSPs (fEPSPs) of […]. fEPSPs are recorded in the stratum radiatum using a borosilicate micropipette filled with aCSF.
For each electrophysiological experiment, the average slope of individual f-EPSP was measured from the initial 1-1.5 ms-portion following the fiber volley using Clampfit (Axon Instruments, Germany). For statistical analyses, the f-EPSP slope was averaged over 1-min and analyzed by three-way analysis of variance (ANOVA) using Statview 5.0 with sequences (10-min) and stimulation (1-min bins) as repeated measures. […] Infarct volume and DNA fragmentation were analyzed by two-tailed t-tests. Western blots were evaluated by one-way ANOVA followed by LSD post-hoc tests. Statistical significance was set at p=0.05, data are presented as mean±SEM.
Graded doses of OA were used to inhibit both PP1 and PP2A, or PP2A alone.

[4] = tested on: PP1; conditions: literature ranges, cited from earlier work
[5] = tested on: JNK1; experiment: Western blot of phosphorylated JNK1 in slices subjected to OGD; conditions: PP1 inhibition (tautomycin) or OGD in vitro
Protocol: (§2) Acute slices (hippocampus, cortex and striatum) were exposed to 15 to 25-min of hypoxic/aglycemic conditions by perfusion with aCSF containing no glucose (replaced with equimolar sucrose) and gassed with N2/CO2 (95/5%) (Lobner and Lipton, 1993; Raley-Susman and Lipton, 1990). […] The OGD solution reached the recording chamber within 30 seconds and replaced the normoxic aCSF within 2-3 min.
(§3) Drugs for slice recordings were bath-applied for 2 hours before recording in oxygenated aCSF. Okadaic acid (Alexis Corporation, Switzerland) and tautomycin (Alexis Corporation and Sigma Aldrich, Switzerland) were dissolved in DMSO (30 mM) and methanol or ethanol (1 mM), respectively, and stock solutions were diluted further in aCSF the day of the experiment. The respective solvents were used for drug-control experiments. For both mutant and control slices, the aCSF was supplemented with doxycycline hydrochloride (Sigma, Buchs, Switzerland) at 8 ng/ml.
(§4) Tissue samples from the striatum ipsilateral and contralateral to MCAO or from acute forebrain slices (hippocampus, cortex and striatum) were homogenized in lysis buffer and centrifuged. Supernatants were resolved on SDS-PAGE and proteins were transferred onto PVDF membranes. […] The band intensity was determined by densitometry and corrected for protein loading using anti-β-actin antibody (A5316; Sigma) as an internal control.

[6] = tested on: hippocampal slices (Schaffer collaterals/CA1); experiment: LTD (f-EPSP slope) in hippocampal slices; format: cell-based, mouse; conditions: 1 nM tautomycin, LTD without OGD
Protocol: as §1, with “1.1 ml/min. […] Evoked f-EPSP” for “1.1 ml/min. A monopolar electrode was placed in the stratum radiatum to activate Schaffer collaterals and test stimuli were applied at 0.033 Hz at an intensity set to evoke 1/3 of the maximum f-EPSP. Evoked f-EPSP”, “or aCSF. […] Baseline responses” for “or aCSF. The signal was amplified with an AXOPATCH 200B amplifier (Axon Instruments/Molecular Devices, Germany) and sampled using pCLAMP. Baseline responses”, “with aCSF. […]” for “with aCSF.”

[7] = tested on: PP1; conditions: 1 nM tautomycin (submaximal dose); cited from earlier work
[8] = tested on: ERK2; experiment: Western blot of phosphorylated ERK2 in slices subjected to OGD; conditions: control slices treated with tautomycin (3 nM) and subjected to OGD
Protocol: as §2, §3, §4

[9] = tested on: ERK1; experiment: Western blot of phosphorylated ERK1 in slices subjected to OGD; conditions: control slices treated with tautomycin (3 nM) and subjected to OGD
Protocol: as §2, §3, §4

[10] = tested on: JNK2; experiment: Western blot of phosphorylated JNK2 in slices subjected to OGD; conditions: PP1 inhibition (tautomycin) in vitro
Protocol: as §2, §3, §4

Structure (SMILES) | IC50 [1] | IC50 ([1]; listed as okadaic acid) [nM] | effect on LTP induced by a single 1-sec train at 100 Hz [2] | mean f-EPSP slope 80-90 min after the onset of OGD ([3]; 0.1 nM drug) [%] | mean f-EPSP slope 80-90 min after the onset of OGD ([3]; 1 nM drug) [%] | mean f-EPSP slope 80-90 min after the onset of OGD ([3]; 10 nM drug) [%] | mean f-EPSP slope 80-90 min after the onset of OGD ([3]; 100 nM drug) | mean f-EPSP slope 80-90 min after the onset of OGD ([3]; 1 μM drug) | IC50 [4] [nM] | IC50 ([4]; listed as okadaic acid) [nM] | JNK1 phosphorylation [5] | f-EPSP slope after LTD, % of baseline at 90 min ([6]; I-1* mutant slices) [%] | f-EPSP slope after LTD, % of baseline at 90 min ([6]; control slices) [%] | PP1 inhibition [7] | increase in phosphorylated ERK2 [8] | increase in phosphorylated ERK1 [9] | f-EPSP slope after LTD+OGD, % of baseline 90 min after LTD induction ([3]; 1 nM tautomycin, I-1* mutant slices, LTD 10 min prior to OGD) [%] | mean f-EPSP slope 80-90 min after the onset of OGD ([3]; 3 nM drug) [%] | phosphorylated JNK2 [10]
C=C1[C@@H](O)[C@@H]2O[C@]3(CC[C@H](/C=C/[C@@H](C)[C@@H]4CC(C)=C[C@@]5(O[C@H](C[C@@](C)(O)C(=O)O)CC[C@H]5O)O4)O3)CC[C@H]2O[C@@H]1[C@@H](O)C[C@H](C)[C@H]1O[C@@]2(CCCCO2)CC[C@H]1C [OA, okadaic acid] | 0.1 to 1 nM | 0.02 to 1 | blocked | 76.6±20.5 | 86.8±5.2 | 56.6±23.9 | 43.5±16.6% and 43.1±15.6% | 20.2±13.9% and 20.3±14.4% | 20 to 100 | 10 to 1300 | – | – | – | – | – | – | – | – | –
CO[C@H]([C@H](O)CC(=O)[C@@H](C)[C@@H](O)CC[C@@H](C)[C@@H]1O[C@]2(CC[C@@H](C)[C@H](CC[C@H](C)C(C)=O)O2)CC[C@@H]1C)[C@H](OC(=O)C[C@@H](O)C1=C(C)C(=O)OC1=O)C(C)C [tautomycin] | 10 to 23 nM and 10 to 20 nM | – | – | – | 88.6±1.5 | 4.4±2.9 | 0.9±1.3% | – | – | – | not altered | 96.3±3.6 | 85.2±3.0 | about 30% | +404.1±28.5% | +366.8±48.6% | 37.0±10.8 | 31.4±4.6 | did not increase
